“Also recorded” adds a separate entry of the source. Where two headings read alike, the source gives them in different places.
What was measured:
[1] = type: in vitro ADME; details: human; for plasma protein binding assay readout (Fig 6C): 50 uM
From the text: Fig 6 Cross-linking at sub-toxic concentrations within cells. […] Results are shown as percentage of viable cells compared to a vehicle control. Note: cell viability <70% (dotted line) is generally considered as the threshold for cytotoxicity, and viabilities >100% indicate a trophic effect. Controls included EMEM with 0.1% DMSO (dimethyl sulfoxide, negative control) and 500 μm of chlorpromazine (positive control). […] The data underlying this figure can be found in S1 Data. LC-MS/MS, liquid chromatography-tandem mass spectrometry; MS, mass spectrometry; SOD1, superoxide dismutase 1.

[2] = test system: B6 G93A mice; test: Survival study, congenic B6 G93A/YFP mice, S-XL6 50 mg/kg SC on weekdays from day 108; type: in vivo, mouse; set-up: Dosed remained: unit not given here
From the text: Two fALS lines were used to assess survival in genetic backgrounds with different disease severity. […] Dose and dose regimen were estimated from the blood PK/PD profile and BBB penetration described above. A subcutaneous (SC) route of administration was chosen because in our hands it results in more precise delivery. […] In both studies, mice were gender and littermate matched and non ALS-related deaths were excluded. We are currently developing the methods necessary for quantifying copy number and cannot rule out reduced SOD1 expression as having contributed to the survival benefit in treated B6 G93A mice.
The first line was derived by crossing (over >10 generations) congenic fALS “B6 G93A mice” (B6.Cg-Tg(SOD1*G93A)1Gur/J, Stock No. 004435, The Jackson Laboratory, Bar Harbor, Maine, USA) with “YFP-16 mice” [50] (B6.Cg-Tg(Thy1-YFP)16Jrs/J, Stock No. 003709, The Jackson Laboratory, Bar Harbor, Maine, USA). This line maintains the C57BL/6J genetic background and expresses YFP in motor and sensory neurons to enable cellular-level molecular profiling in future studies. The second line is the standard “Hybrid B6SJL G93A mice” (B6SJL-Tg(SOD1*G93A)1Gur/J Stock No. 002726, The Jackson Laboratory, Bar Harbor, Maine, USA). Methods for survival studies have been described and followed the conventions for optimal trial design with fALS mice. Mice were tested for difference in: (1) disease onset (at least a 20% decrease in grip strength and open-field motor performance, which we expect to correlate with change in weight); (2) disease end-stage (disease score, e.g., loss of righting reflex); and (3) weight. The hybrid line was additionally tested for differences in forelimb and hindlimb grip strength.

Q: Which “plasma protein binding assay readout (Fig 6C)” value [1] does the source give for `[O-][S+]1CCCCS1` (stereo not shown) [S-XL6, 1,2-dithiane-1-oxide] here?
A: 79%

Q: And the plasma protein binding ([1]; plasma)?
A: no binding

Q: And the “plasma protein binding assay readout (Fig 6C)” value ([1]; plasma)?
A: 144%

Q: What about the survival benefit ([2]; 50 mg/kg SC from day 108) of the same molecule?
A: modest survival benefit; also recorded: modest survival improvement

Q: What about the “clinical signs immediately after dosing” value ([2]; SC dosing) of the same molecule?
A: lethargy and shaking that subsided after 20 min

Q: And the Dosed remained ([2]; day 0)?
A: 100

Q: What about the Dosed remained ([2]; day 125) of the same molecule?
A: 100

Q: And the Dosed remained ([2]; day 125.999)?
A: 100

Q: And the Dosed remained ([2]; day 127.999)?
A: 100

Q: And the Dosed remained ([2]; day 128)?
A: 100

Q: And the Dosed remained ([2]; day 128.999)?
A: 100

Q: What about the Dosed remained ([2]; day 129) of the same molecule?
A: 100

Q: What about the Dosed remained ([2]; day 129.999) of the same molecule?
A: 100

Q: What about the Dosed remained ([2]; day 130) of the same molecule?
A: 100

Q: What about the Dosed remained ([2]; day 130.999) of the same molecule?
A: 100

Q: What about the Dosed remained ([2]; day 131) of the same molecule?
A: 100

Q: And the Dosed remained ([2]; day 131.999)?
A: 100

Q: What about the Dosed remained ([2]; day 132) of the same molecule?
A: 100

Q: What about the Dosed remained ([2]; day 132.999) of the same molecule?
A: 100

Q: What about the Dosed remained ([2]; day 133) of the same molecule?
A: 100

Q: And the Dosed remained ([2]; day 133.999)?
A: 100

Q: What about the Dosed remained ([2]; day 134) of the same molecule?
A: 100

Q: What about the Dosed remained ([2]; day 134.999) of the same molecule?
A: 100

Q: And the Dosed remained ([2]; day 135)?
A: 100

Q: What about the Dosed remained ([2]; day 135.999) of the same molecule?
A: 100

Q: And the Dosed remained ([2]; day 136)?
A: 100

Q: What about the Dosed remained ([2]; day 136.999) of the same molecule?
A: 100

Q: What about the Dosed remained ([2]; day 137) of the same molecule?
A: 100

Q: What about the Dosed remained ([2]; day 137.999) of the same molecule?
A: 100

Q: And the Dosed remained ([2]; day 138)?
A: 100

Q: And the Dosed remained ([2]; day 138.999)?
A: 100

Q: And the Dosed remained ([2]; day 139)?
A: 100

Q: What about the Dosed remained ([2]; day 139.999) of the same molecule?
A: 100

Q: What about the Dosed remained ([2]; day 140) of the same molecule?
A: 100

Q: And the Dosed remained ([2]; day 140.999)?
A: 100

Q: And the Dosed remained ([2]; day 141)?
A: 100

Q: And the Dosed remained ([2]; day 141.999)?
A: 100

Q: What about the Dosed remained ([2]; day 142) of the same molecule?
A: 100

Q: What about the Dosed remained ([2]; day 142.999) of the same molecule?
A: 100

Q: What about the Dosed remained ([2]; day 143) of the same molecule?
A: 100

Q: What about the Dosed remained ([2]; day 143.999) of the same molecule?
A: 100

Q: What about the Dosed remained ([2]; day 144) of the same molecule?
A: 100

Q: And the Dosed remained ([2]; day 144.999)?
A: 100

Q: What about the Dosed remained ([2]; day 145) of the same molecule?
A: 100

Q: What about the Dosed remained ([2]; day 145.999) of the same molecule?
A: 100

Q: What about the Dosed remained ([2]; day 146) of the same molecule?
A: 100

Q: And the Dosed remained ([2]; day 146.999)?
A: 100

Q: What about the Dosed remained ([2]; day 147) of the same molecule?
A: 100

Q: And the Dosed remained ([2]; day 147.999)?
A: 100

Q: What about the Dosed remained ([2]; day 148) of the same molecule?
A: 100

Q: And the Dosed remained ([2]; day 148.999)?
A: 100

Q: And the Dosed remained ([2]; day 149)?
A: 100

Q: And the Dosed remained ([2]; day 149.999)?
A: 100

Q: And the Dosed remained ([2]; day 150)?
A: 100

Q: And the Dosed remained ([2]; day 150.999)?
A: 100

Q: And the Dosed remained ([2]; day 151)?
A: 100

Q: What about the Dosed remained ([2]; day 151.999) of the same molecule?
A: 100

Q: What about the Dosed remained ([2]; day 152) of the same molecule?
A: 100

Q: And the Dosed remained ([2]; day 152.999)?
A: 100

Q: And the Dosed remained ([2]; day 153)?
A: 100

Q: And the Dosed remained ([2]; day 153.999)?
A: 100

Q: What about the Dosed remained ([2]; day 154) of the same molecule?
A: 100

Q: What about the Dosed remained ([2]; day 154.999) of the same molecule?
A: 100

Q: What about the Dosed remained ([2]; day 155) of the same molecule?
A: 100

Q: And the Dosed remained ([2]; day 155.999)?
A: 100

Q: What about the Dosed remained ([2]; day 156) of the same molecule?
A: 100

Q: And the Dosed remained ([2]; day 156.999)?
A: 100

Q: And the Dosed remained ([2]; day 157)?
A: 70

Q: And the Dosed remained ([2]; day 172.999)?
A: 30

Q: And the Dosed remained ([2]; day 173)?
A: 30

Q: What about the Dosed remained ([2]; day 173.999) of the same molecule?
A: 30

Q: And the Dosed remained ([2]; day 174)?
A: 30

Q: What about the Dosed remained ([2]; day 174.999) of the same molecule?
A: 30

Q: What about the Dosed remained ([2]; day 175) of the same molecule?
A: 30

Q: What about the Dosed remained ([2]; day 175.999) of the same molecule?
A: 30

Q: What about the Dosed remained ([2]; day 176) of the same molecule?
A: 30

Q: What about the Dosed remained ([2]; day 176.999) of the same molecule?
A: 30

Q: What about the Dosed remained ([2]; day 177) of the same molecule?
A: 30

Q: And the Dosed remained ([2]; day 177.999)?
A: 30

Q: And the Dosed remained ([2]; day 178)?
A: 20

Q: What about the Dosed remained ([2]; day 178.999) of the same molecule?
A: 20

Q: And the Dosed remained ([2]; day 179)?
A: 20

Q: And the Dosed remained ([2]; day 179.999)?
A: 20

Q: And the Dosed remained ([2]; day 180)?
A: 20

Q: And the Dosed remained ([2]; day 180.999)?
A: 20

Q: And the Dosed remained ([2]; day 181)?
A: 20

Q: And the Dosed remained ([2]; day 181.999)?
A: 20

Q: And the Dosed remained ([2]; day 182)?
A: 20

Q: And the Dosed remained ([2]; day 182.999)?
A: 20

Q: What about the Dosed remained ([2]; day 183) of the same molecule?
A: 20

Q: And the Dosed remained ([2]; day 183.999)?
A: 20

Q: And the Dosed remained ([2]; day 184)?
A: 20

Q: And the Dosed remained ([2]; day 184.999)?
A: 20

Q: And the Dosed remained ([2]; day 185)?
A: 10

Q: What about the Dosed remained ([2]; day 185.999) of the same molecule?
A: 10

Q: What about the Dosed remained ([2]; day 186) of the same molecule?
A: 10

Q: And the Dosed remained ([2]; day 186.999)?
A: 10

Q: And the Dosed remained ([2]; day 187)?
A: 10

Q: And the Dosed remained ([2]; day 187.999)?
A: 10

Q: What about the Dosed remained ([2]; day 188) of the same molecule?
A: 10

Q: And the Dosed remained ([2]; day 188.999)?
A: 10

Q: What about the Dosed remained ([2]; day 189) of the same molecule?
A: 10

Q: And the Dosed remained ([2]; day 189.999)?
A: 10

Q: And the Dosed remained ([2]; day 190)?
A: 0

Q: And the Dosed remained ([2]; day 190.999)?
A: 0

Q: What about the survival ([2]; dosed, mean +/− STD, control 153 +/− 15 days) of the same molecule?
A: 169 ± 11 days

From article PMC10826971, “Evaluating protein cross-linking as a therapeutic strategy to stabilize SOD1 variants in a mouse model of familial ALS” (PLOS Biology, 2024)
